According to patent US20260083767A1, “SOLID DOSAGE FORM OF A SMALL MOLECULE ANTIVIRAL AND USES THEREOF” (Merck Sharp & Dohme LLC, priority 2022, published 2026):
Like-named read-outs stand apart in the source and are kept apart here.

How the values were obtained:
[1] = species not stated; cited from earlier work
[2] = Aqueous solubility and wettability of Compound A; type: physicochemical
Excerpt: As the levels of Compound A increases in the formulation, the flow properties of the pre-roller compaction powder blend worsens due to the cohesive nature of the material. […] As the levels of Compound A increases in the formulation, the property of the powder blend is dominated by the properties of Compound A, resulting in poor wettability, dispersibility and uniformity in water. Accordingly, the proportion of Compound A in the formulations having desirable properties is limited.

[3] = non-human primates; cited from earlier work

CC(C)C(=O)OC[C@H]1O[C@@H](n2ccc(NO)nc2=O)[C@H](O)[C@@H]1O [Compound A, {(2R,3S,4R,5R)-3,4-dihydroxy-5-[4-(hydroxyimino)-2-oxo-3,4-dihydropyrimidin-1 (2H)-yl]oxolan-2-yl}methyl 2-methylpropanoate]
oral bioavailability [1]: orally bioavailable | aqueous solubility [2]: good | wettability in aqueous media ([2]; aqueous media): poor

O=c1nc(NO)ccn1[C@@H]1O[C@H](CO)[C@@H](O)[C@H]1O [NHC, 1-((2R,3R,4S,5R)-3,4-dihydroxy-5-(hydroxymethyl)tetrahydrofuran-2-yl)-4-(hydroxyamino)pyrimidin-2 (1H)-one]
oral bioavailability [3]: limited
